Assay: gradient 5% acetonitrile 3 min, to 50% in 2 min, to 85% in 15 min, held 3 min, 100 µL/min
Settings: column: Zorbax Extend-C18 2.1 x 50 mm; eluents: water / acetonitrile, 0.1% formic acid
In short: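 Pure standards were analyzed in mixtures of ~100 molecules using HPLC coupled to a quadrupole time-of-flight mass spectrometer, in both positive and negative ionization mode. Separation used a Zorbax Extend-C18 column (2.1 × 50 mm, 1.8 μm) at 100 μL/min, with water and acetonitrile each containing 0.1% formic acid. Dead and dwell volumes were 40 μL and 900 μL, and data were collected over 3 months. Retention time was read from computationally picked adduct peaks, each inspected manually.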

Row | Structure (SMILES) | RP-LC retention time [s]
1 | CCN(CCCNC(=O)Cn1ccc2c(=O)n(C)c(=O)n(C)c21)c1ccccc1 | 578
2 | Cc1ccsc1C(=O)Nc1ccc(Cn2cncn2)cc1 | 695
3 | CC(=O)c1ccc(N2CCN(c3ccc(NC(=O)C4CCC4)c(C(=O)O)c3)CC2)cc1 | 853
4 | Cc1ccccc1NC(=O)N1CCC(n2cnc3c(Cl)cccc3c2=O)CC1 | 791
5 | O=C(Nc1ccc2nc3n(c(=O)c2c1)CCCC3)Nc1ccc(Br)cc1F | 782
6 | CCC(C)NC(=O)CC1CCN(C(=O)c2ccc3oc(C4CC4)nc3c2)CC1 (stereo not given) | 710
7 | Cc1ccc(Nc2c(-c3ccccc3)nc3cnccn23)c(Br)c1 | 1040
8 | CCSc1nnc(-c2nn(C)c3c2CN(C(=O)c2cccc(Cl)c2)CC3)n1C | 788
9 | Cc1noc(C)c1CCC(=O)Nc1nnc(-c2ccsc2)o1 | 628
10 | CCCC(=O)Nc1nc(-c2ccc3c(c2)NC(=O)C(C)O3)cs1 (stereo not given) | 806
11 | Cc1cc(NC(=O)NC2CCN(c3ccccc3)C2=O)ccc1Br (stereo not given) | 919
12 | Cc1cccc(Nc2ncccc2S(N)(=O)=O)c1 | 811
13 | Cc1cc(C)c2sc(N(CCCn3ccnc3)C(=O)C3COc4ccccc4O3)nc2c1 (stereo not given) | 667
14 | O=C(COc1ccccc1F)N1CCC(Oc2nc3ccccc3s2)CC1 | 986
15 | C[C@H]1CN(C(=O)c2cc(F)cc(F)c2)C[C@@H]1c1nc(-c2ccccc2)no1 | 1040
16 | O=C(Nc1ccccc1F)NC1CCN(C(=O)N2C[C@H]3C[C@H](C2)[C@H]2CCCC(=O)N2C3)CC1 | 677
17 | COc1cc(CNC(=O)CCC(=O)N2CC3CCCN3c3ccccc32)cc(OC)c1OC (stereo not given) | 818
18 | CNC(=O)c1sc(-c2cccc(C)c2)nc1C | 797
19 | CC(C)(C)c1csc(-c2csc(S(=O)(=O)Nc3ccc(Cl)cc3F)c2)n1 | 1300
20 | Cc1nc(NC(=O)C2COCC(=O)N2Cc2ccccc2)sc1C(=O)N(C)C (stereo not given) | 615
21 | CN1C(=O)C2(CCN(C(=O)c3ccc(F)cc3)C2)c2ccccc21 (stereo not given) | 764
22 | CNC(=O)c1c(-c2ccc(F)cc2)oc2cc(N(CCO)S(C)(=O)=O)c(C3CC3)cc12 | 838
23 | Cc1ccc(-c2noc(CCn3nc(-c4ccc(C)c(C)c4)ccc3=O)n2)cc1 | 1150

Row | Structure (SMILES) | RP-LC retention time [s]
24 | Cn1ncc2c3ccccc3n(CC(=O)NCc3cccs3)c2c1=O | 764
25 | Cc1cccc(CNC(=O)CN2C(=O)C3CCCCN3c3ccc(S(=O)(=O)N(C)C)cc32)c1 (stereo not given) | 932
26 | CNC(=O)c1sc2nc(-c3cccc(OC)c3)c(NCCOC)n2c1C | 696
27 | COc1ccc(N2CC(c3noc(-c4ccc(OC)cc4OC)n3)CC2=O)cc1 (stereo not given) | 861
28 | Cc1noc(C2CN(CC(=O)N3CCN(c4ccc(Cl)cc4)CC3)C2)n1 | 590
29 | COc1ccc(OC)c(-c2[nH]ncc2CN2CC(F)(F)C[C@H]2CN2CCOCC2)c1 | 606
30 | O=C([C@@H]1C[C@H](Oc2ccccc2)CN1C(=O)CCC1CCCC1)N1CCCC1 | 922
31 | CCNC(=O)CCc1nc2ccccc2n(CC(=O)Nc2ccc(OC)c(OC)c2)c1=O | 658
32 | O=C(C1=CN(c2ccc(Oc3ccccc3)cc2)c2cc(F)ccc2S1(=O)=O)N1CCOCC1 | 958
33 | O=C(c1ccc2c(c1)OCO2)N1CCCCC1c1nncn1CC1CC1 (stereo not given) | 631
34 | CN(C)c1ccc(C(CNC(=O)C(=O)Nc2ccc(F)c(Cl)c2)N2CCCC2)cc1 (stereo not given) | 613
35 | CC(C)C(=O)Nc1nc(-c2ccc3c(c2)N(C)C(=O)CO3)cs1 | 787
36 | O=C1CCCCC(C(=O)N2CCCCC2)N1 (stereo not given) | 641
37 | c1ccc(-c2noc(N3CCN(c4ccccn4)CC3)n2)cc1 | 668
38 | Cc1ccc(Cl)cc1N1C(=O)CN(S(C)(=O)=O)CC1(C)C(=O)NC1CCCC1 (stereo not given) | 838
39 | CCc1nc2nccc(-c3ccc(OC)c(OC)c3)n2n1 | 702
40 | Cc1ccc(NC(=O)C2(Cc3cccnc3)CCCCC(=O)N2)cc1 (stereo not given) | 611
41 | c1ccc(-c2nc(-c3ccncc3)no2)c(OC2CCN(C3CCCC3)C2)c1 (stereo not given) | 667
42 | COc1ccccc1-c1noc(C2CCCN2C(=O)c2ccsc2)n1 (stereo not given) | 802
43 | COC(=O)c1ccc(-c2nc3cnccn3c2Nc2cc(C)cc(C)c2)cc1 | 978
44 | Cc1oc(-c2ccc(NC(=O)c3ccco3)cc2)nc1Cn1cccn1 | 759
45 | CCOC(=O)c1cc2n(n1)CC(C)(C(=O)NC1CCCC1)N(c1cccc(F)c1)C2=O (stereo not given) | 862
46 | Cc1cccc(OCc2ccc(-c3nc(C#N)c(NCCN(C)C)o3)o2)c1 | 708

Row | Structure (SMILES) | RP-LC retention time [s]
47 | O=C(Nc1ccc(-c2nnc3n2CCCC3)cc1)C1CCC1 | 622
48 | CCc1nnc2c(=O)n(CC(=O)NC(C)c3ccccc3)c3cccnc3n12 (stereo not given) | 714
49 | O=C(NCC1CCCO1)c1nnc(-c2ccc(S(=O)(=O)N3CCCC3)cc2)o1 (stereo not given) | 729
50 | COc1ccccc1C(=O)NC1(C(F)(F)F)C(=O)N(CC(C)C)C2=C1C(=O)CC(C)(C)C2 (stereo not given) | 1070
51 | CCCN(C(=O)C1CCC(C)CC1)c1nc(-c2ccccc2)cs1 (stereo not given) | 748
52 | CN(CC1CCOC1)S(=O)(=O)Cc1ccccc1F (stereo not given) | 755
53 | Cc1cc(OCC(=O)N2CCCCC2)nc(-c2ccc(Cl)cc2)n1 | 790
54 | Cc1oc(-c2[nH]ncc2C(=O)N2CCCCC2)cc1S(=O)(=O)Nc1cccc(F)c1 | 710
55 | CCNC(=O)c1nnc(-c2ccc(S(=O)(=O)N3CCCC3)cc2)o1 | 753
56 | CCn1nc(CNC(=O)Cc2cccc(F)c2)c2ccccc21 | 764
57 | CN(CCCNC(=O)CCCn1c(=O)c2cccn2c2ccc(F)cc21)Cc1ccccc1 | 673
58 | O=C(NCc1ccco1)N1CCN(Cc2nc3cccnc3n2-c2cccc(F)c2)CC1 | 636
59 | O=C(Cc1nnc2cc(-c3nc(C4CC4)no3)ccn12)Nc1ccc(Cl)cc1 | 816
60 | O=C(c1cc(-c2ccc(Br)cc2)n[nH]1)N1CCN(c2ccc(N3CCOCC3)nn2)CC1 | 649
61 | CC(=O)c1ccc(NC(=O)C2CCCN(c3nc(C)nc4oc(C)c(C)c34)C2)cc1 (stereo not given) | 839
62 | O=c1c(NCc2ccccn2)nc2ccncc2n1Cc1ccccc1 | 578
63 | Cc1cccc(-c2ncccc2CNS(=O)(=O)Cc2cccc(F)c2)c1 | 774
64 | O=C(CN1C(=O)C2CCCCN2c2ccc(C(=O)N3CCCC3)cc21)Nc1cccc(Cl)c1 (stereo not given) | 676
65 | O=C(Cc1ccccc1Cl)NC(c1ccccc1)c1nnc(N2CCCCC2)o1 (stereo not given) | 899
66 | COc1ccc(OCc2noc(CNC(=O)CCC(=O)c3ccccc3)n2)cc1 | 712
67 | CCc1cc(=O)n(CC(=O)Nc2ccc(F)c(F)c2)c(N2CCOCC2)n1 | 756
68 | COCC1(O)CCOC2(CCN(C(=O)c3cccs3)CC2)C1 (stereo not given) | 621
69 | CCOC(=O)c1c(C)c(CCC(=O)N2CCN(c3ncccn3)CC2)n(C)c1C | 765

Row | Structure (SMILES) | RP-LC retention time [s]
70 | COCc1cn(C2CN(C(=O)c3cc(C)nn3C)C2)nn1 | 581
71 | Cc1nc(-c2noc(-c3ccncc3)n2)cn1CC(=O)NCc1cccc(Cl)c1 | 693
72 | COc1ccc(S(=O)(=O)N2CCCN(c3ccc(=O)n(-c4ccc(C)c(C)c4)n3)CC2)cc1 | 903
73 | CCOc1ccc(-n2nnc(-c3nc(-c4ccc(C(C)C)cc4)cs3)c2N)cc1 | 1350
74 | O=C(Nc1ccc(SCc2nnc(-c3ccccc3)o2)cc1)c1ccc(Br)o1 | 1010
75 | CCN(C(=O)C1CCCN(c2ncnc3c2nc2n3CCCCC2)C1)c1ccccc1 (stereo not given) | 838
76 | C=CCN1CCc2cc(O)c(O)cc2C(c2ccccc2)C1 (stereo not given) | 652
77 | CCCn1ccc2sc(C)c(C(=O)NCc3ccccc3Cl)c2c1=O | 980
78 | COc1ccc(-c2noc(Cc3nnc(-c4ccccc4)o3)n2)cc1OC | 949
79 | CN(C)[C@@H]1CN(Cc2cccc(OC(F)(F)F)c2)CC[C@@H]1CO | 585
80 | CN1c2ccccc2C(=O)NC12CCN(C(=O)Nc1ccc(F)cc1)CC2 | 729
81 | O=C(Nc1ccc2c(c1)CCCN2C(=O)C1CC1)c1nc2ccccc2s1 | 968
82 | COCC(=O)N1CCC([C@H]2[C@@H](OC)C(=O)N2C(C)C)CC1 | 602
83 | CN(C)c1ccc(-c2nc3cnccn3c2Nc2ccc(F)cc2)cc1 | 787
84 | Cc1ccc(CNC(=O)Cn2nc3n(c2=O)CCCCC3)cc1 | 675
85 | COc1cc(NC(=O)N2CCC(OC3CCN(S(C)(=O)=O)CC3)CC2)cc(OC)c1 | 704
86 | CCCCNC(=O)c1ccc(-c2nc(CCN(C)C(=O)CC)no2)cc1 | 740
87 | O=C(CN1C(=O)COc2cc(Cl)ccc21)NC1CC1 | 714
88 | CC(C)Oc1ccc(-c2noc(Cn3nc(-c4ccc5c(c4)OCO5)ccc3=O)n2)cc1 | 1080
89 | CC(C)c1ccc(OCC(=O)Nc2nnc(C3CC(=O)N(c4ccc(Cl)cc4)C3)o2)cc1 (stereo not given) | 943
90 | O=C(NCc1ccccc1Br)C1CCN(c2nnc(-c3ccccc3)o2)CC1 | 880
